# Assay results: paper PMC8699473, “An Easily Expandable Multi-Drug LC-MS Assay for the Simultaneous Quantification of 57 Oral Antitumor Drugs in Human Plasma” (Cancers, 2021)
# Details: human
compound,measurement,setting,value
Cc1ccc(C(=O)Nc2ccc(CN3CCN(C)CC3)c(C(F)(F)F)c2)cc1C#Cc1cnc2cccnn12 [Ponatinib],"Long-term stability, 1 month, -20°C Accuracy [%]",both,96.0%
same,"Long-term stability, 1 month, -80°C Accuracy [%]",both,92.6%
same,"Long-term stability, 2 month, -20°C Accuracy [%]",both,87.7%
same,"Long-term stability, 2 month, -80°C Accuracy [%]",both,99.1%
same,"Long-term stability, 3 month, -20°C Accuracy [%]",both,91.3%
same,"Long-term stability, 3 month, -80°C Accuracy [%]",both,96.8%
same,"Long-term stability, 6 weeks, 4°C, without daylight Accuracy [%]",,83.5%
